Test results reported in ChEMBL document CHEMBL2021806, “GnRH-III based multifunctional drug delivery systems containing daunorubicin and methotrexate” (Eur J Med Chem, 2012).
The source made the active and inactive calls. The calls are words filed in the database; no cut-off is given here.

What was measured:
LNCaP = assay: Cytostatic activity against human LNCAP cells after 4 days by MTT assay; format: functional, cell-based; details: 96 h
HT-29 = assay: Cytostatic activity against human HT-29 cells after 4 days by MTT assay; format: functional, cell-based; details: HT-29, 96 h
Serum [1] = assay: Metabolic stability in human serum at 10 uM after 24 hrs by RP-HPLC analysis; format: ADME, cell-free
[2] = Drug metabolism in rat lysosomal homogenate assessed as large peptide fragment EHWK(MTX)HDWK(Ac)-OH formation at 0.1 ug/ul after 24 hrs by LC-MS analysis; format: ADME, tissue-based, Lysosome; details: tissue homogenate
MCF7 = assay: Cytostatic activity against human MCF7 cells after 4 days by MTT assay; format: functional, cell-based; details: MCF7, 96 h
MONO-MAC-6 [3] = assay: Antiproliferative activity against human MONO-MAC-6 cells assessed as inhibition of cell viability at 10^-8 M after 24 hrs by cell counting method; format: functional; details: MONO-MAC-6, 24 h, values are per cent of control
MONO-MAC-6 [4] = assay: Antiproliferative activity against human MONO-MAC-6 cells assessed as cell viability at 10^-6 M after 72 hrs by cell counting method relative to untreated control; format: functional
MONO-MAC-6 [5] = assay: Antiproliferative activity against human MONO-MAC-6 cells assessed as inhibition of cell viability at 10^-9 M after 72 hrs by cell counting method; format: functional; details: MONO-MAC-6, 72 h, values are per cent of control
MONO-MAC-6 [6] = assay: Antiproliferative activity against human MONO-MAC-6 cells assessed as inhibition of cell viability at 10^-8 M after 72 hrs by cell counting method; format: functional; details: MONO-MAC-6, 72 h, values are per cent of control
MONO-MAC-6 [7] = assay: Induction of adhesion in human MONO-MAC-6 cells at 10^-7 to 10^-6 M after 24 hrs by electrical impedence method relative to control; format: functional, cell-based
MONO-MAC-6 [8] = assay: Antiproliferative activity against human MONO-MAC-6 cells assessed as cell viability at 10^-6 M after 48 hrs by cell counting method relative to untreated control; format: functional
MONO-MAC-6 [9] = assay: Induction of adhesion in human MONO-MAC-6 cells at 10^-9 M after 24 hrs by electrical impedence method relative to control; format: functional
[10] = Drug metabolism in rat lysosomal homogenate assessed as H-Lys(MTX)HDWK(Dau=Aoa)P-OH formation at 0.1 ug/ul after 24 hrs by LC-MS analysis; format: ADME, tissue-based, Lysosome; details: tissue homogenate
MONO-MAC-6 [11] = assay: Antiproliferative activity against human MONO-MAC-6 cells assessed as inhibition of cell viability at 10^-9 M after 24 hrs by cell counting method; format: functional; details: MONO-MAC-6, 24 h, values are per cent of control
MONO-MAC-6 [12] = assay: Antiproliferative activity against human MONO-MAC-6 cells assessed as inhibition of cell viability at 10^-8 M after 48 hrs by cell counting method; format: functional; details: MONO-MAC-6, 48 h, values are per cent of control
MONO-MAC-6 [13] = assay: Antiproliferative activity against human MONO-MAC-6 cells assessed as inhibition of cell viability at 10^-7 M after 24 hrs by cell counting method; format: functional; details: MONO-MAC-6, 24 h, values are per cent of control
MONO-MAC-6 [14] = assay: Antiproliferative activity against human MONO-MAC-6 cells assessed as inhibition of cell viability at 10^-7 M after 48 hrs by cell counting method; format: functional; details: MONO-MAC-6, 48 h, values are per cent of control
MONO-MAC-6 [15] = assay: Antiproliferative activity against human MONO-MAC-6 cells assessed as inhibition of cell viability at 10^-6 M after 72 hrs by cell counting method; format: functional; details: MONO-MAC-6, 72 h, values are per cent of control
MONO-MAC-6 [16] = assay: Antiproliferative activity against human MONO-MAC-6 cells assessed as inhibition of cell viability at 10^-9 M after 48 hrs by cell counting method; format: functional; details: MONO-MAC-6, 48 h, values are per cent of control
MONO-MAC-6 [17] = assay: Antiproliferative activity against human MONO-MAC-6 cells assessed as inhibition of cell viability at 10^-6 M after 24 hrs by cell counting method; format: functional; details: MONO-MAC-6, 24 h, values are per cent of control
Serum [18] = assay: Metabolic stability in human serum at 10 uM after 24 hrs by LC-MS analysis; format: ADME, cell-free
MONO-MAC-6 [19] = assay: Antiproliferative activity against human MONO-MAC-6 cells assessed as inhibition of cell viability at 10^-6 M after 48 hrs by cell counting method; format: functional; details: MONO-MAC-6, 48 h, values are per cent of control
MONO-MAC-6 [20] = assay: Antiproliferative activity against human MONO-MAC-6 cells assessed as inhibition of cell viability at 10^-7 M after 72 hrs by cell counting method; format: functional; details: MONO-MAC-6, 72 h, values are per cent of control
MONO-MAC-6 [21] = assay: Antiproliferative activity against human MONO-MAC-6 cells assessed as cell viability at 10^-6 M after 24 hrs by cell counting method relative to untreated control; format: functional
MONO-MAC-6 [22] = assay: Induction of adhesion in human MONO-MAC-6 cells at 10^-8 to 10^-6 M after 24 hrs by electrical impedence method relative to control; format: functional
MONO-MAC-6 [23] = assay: Antiproliferative activity against human MONO-MAC-6 cells assessed as cell viability at 10^-9 to 10^-6 M after 72 hrs by cell counting method relative to untreated control; format: functional
MONO-MAC-6 [24] = assay: Induction of adhesion in human MONO-MAC-6 cells at 10^-7 M after 1.5 hrs by electrical impedence method relative to control; format: functional
[25] = Antitumor activity against mouse C26 cells allografted in Balb/C mouse assessed as tumor growth inhibition; format: functional
MONO-MAC-6 [26] = assay: Antiproliferative activity against human MONO-MAC-6 cells assessed as cell viability at 10^-7 M after 24 hrs by cell counting method relative to untreated control; format: functional
MONO-MAC-6 [27] = assay: Antiproliferative activity against human MONO-MAC-6 cells assessed as cell viability at 10^-9 to 10^-6 M after 48 hrs by cell counting method relative to untreated control; format: functional
MONO-MAC-6 [28] = assay: Induction of adhesion in human MONO-MAC-6 cells at 10^-9 to 10^-6 M after 24 hrs by electrical impedence method relative to control; format: functional
MONO-MAC-6 [29] = assay: Induction of adhesion in human MONO-MAC-6 cells at 10^-11 to 10^-12 M after 24 hrs by electrical impedence method relative to control; format: functional, cell-based
MONO-MAC-6 [30] = assay: Antiproliferative activity against human MONO-MAC-6 cells assessed as cell viability at 10^-7 to 10^-6 M after 72 hrs by cell counting method relative to untreated control; format: functional
MONO-MAC-6 [31] = assay: Antiproliferative activity against human MONO-MAC-6 cells assessed as cell viability at 10^-7 to 10^-6 M after 48 hrs by cell counting method relative to untreated control; format: functional
MONO-MAC-6 [32] = assay: Induction of adhesion in human MONO-MAC-6 cells after 24 hrs by electrical impedence method; format: functional, cell-based
[33] = Drug metabolism in rat lysosomal homogenate assessed as H-Lys(Dau=Aoa)-OH formation at 0.1 ug/ul after 24 hrs by LC-MS analysis; format: ADME, tissue-based, Lysosome; details: tissue homogenate

IC50 (LNCaP) [µM]	IC50 (HT-29) [µM]	IC50 (MCF7) [µM]	Stability (Serum [18])	Compound	viability, % of control at 0.01 µM (MONO-MAC-6 [3]) [%]	Ratio (MONO-MAC-6 [4])	viability, % of control at 0.001 µM (MONO-MAC-6 [5]) [%]	viability, % of control at 0.01 µM (MONO-MAC-6 [6]) [%]	Ratio (MONO-MAC-6 [8])	Activity (MONO-MAC-6 [9]) [%]	viability, % of control at 0.001 µM (MONO-MAC-6 [11]) [%]	viability, % of control at 0.01 µM (MONO-MAC-6 [12]) [%]	viability, % of control at 0.1 µM (MONO-MAC-6 [13]) [%]	viability, % of control at 0.1 µM (MONO-MAC-6 [14]) [%]	viability, % of control at 1 µM (MONO-MAC-6 [15]) [%]	viability, % of control at 0.001 µM (MONO-MAC-6 [16]) [%]	viability, % of control at 1 µM (MONO-MAC-6 [17]) [%]	viability, % of control at 1 µM (MONO-MAC-6 [19]) [%]	viability, % of control at 0.1 µM (MONO-MAC-6 [20]) [%]	Ratio (MONO-MAC-6 [21])	other results
11.3	5.6	5.4	Stable	COc1cccc2c1C(=O)c1c(O)c3c(c(O)c1C2=O)C[C@@](O)(/C(C)=N/OCC(=O)NCCCC[C@H](NC(=O)[C@H](CCC(=O)O)NC(=O)c1ccc(N(C)Cc2cnc4nc(N)nc(N)c4n2)cc1)C(=O)NCCCC[C@H](NC(=O)[C@H](Cc1c[nH]c2ccccc12)NC(=O)[C@H](CC(=O)O)NC(=O)[C@H](Cc1cnc[nH]1)NC(=O)[C@H](CO)NC(=O)[C@H](Cc1c[nH]c2ccccc12)NC(=O)[C@H](Cc1cnc[nH]1)NC(=O)[C@@H]1CCC(=O)N1)C(=O)N1CCC[C@H]1C(=O)NCC(N)=O)C[C@@H]3O[C@H]1C[C@H](N)[C@H](O)[C@H](C)O1	128	0.77	99	97	0.9	77.6	116	91	105	97	38	93	82	63	94	1	Activity (MONO-MAC-6 [7]): inactive; Drug metabolism [10]: Active
28.8	3.6	5.8	Stable	COc1cccc2c1C(=O)c1c(O)c3c(c(O)c1C2=O)C[C@@](O)(/C(C)=N/OCC(=O)NCCCC[C@H](NC(=O)[C@H](Cc1c[nH]c2ccccc12)NC(=O)[C@H](CC(=O)O)NC(=O)[C@H](Cc1cnc[nH]1)NC(=O)[C@H](CCCCNC(=O)[C@H](CCC(=O)O)NC(=O)c1ccc(N(C)Cc2cnc4nc(N)nc(N)c4n2)cc1)NC(=O)[C@H](Cc1c[nH]c2ccccc12)NC(=O)[C@H](Cc1cnc[nH]1)NC(=O)[C@@H]1CCC(=O)N1)C(=O)N1CCC[C@H]1C(=O)NCC(N)=O)C[C@@H]3O[C@H]1C[C@H](N)[C@H](O)[C@H](C)O1	103	0.95	81	103	0.98	135	108	92	98	94	76	89	88	86	104	1.06	Activity (MONO-MAC-6 [32]): Dose-dependent effect; Drug metabolism [33]: Active

Second part, the compound before the results:

Compound	IC50 (LNCaP) [µM]	IC50 (HT-29) [µM]	IC50 (MCF7) [µM]	Stability (Serum [18])	viability, % of control at 0.01 µM (MONO-MAC-6 [3]) [%]	Ratio (MONO-MAC-6 [4])	viability, % of control at 0.001 µM (MONO-MAC-6 [5]) [%]	viability, % of control at 0.01 µM (MONO-MAC-6 [6]) [%]	Ratio (MONO-MAC-6 [8])	Activity (MONO-MAC-6 [9]) [%]	viability, % of control at 0.001 µM (MONO-MAC-6 [11]) [%]	viability, % of control at 0.01 µM (MONO-MAC-6 [12]) [%]	viability, % of control at 0.1 µM (MONO-MAC-6 [13]) [%]	viability, % of control at 0.1 µM (MONO-MAC-6 [14]) [%]	viability, % of control at 1 µM (MONO-MAC-6 [15]) [%]	viability, % of control at 0.001 µM (MONO-MAC-6 [16]) [%]	viability, % of control at 1 µM (MONO-MAC-6 [17]) [%]	viability, % of control at 1 µM (MONO-MAC-6 [19]) [%]	viability, % of control at 0.1 µM (MONO-MAC-6 [20]) [%]	Ratio (MONO-MAC-6 [21])	other results
CC(=O)NCCCC[C@H](NC(=O)[C@H](Cc1c[nH]c2ccccc12)NC(=O)[C@H](CC(=O)O)NC(=O)[C@H](Cc1cnc[nH]1)NC(=O)[C@H](CCCCNC(=O)[C@H](CCC(=O)O)NC(=O)c1ccc(N(C)Cc2cnc3nc(N)nc(N)c3n2)cc1)NC(=O)[C@H](Cc1c[nH]c2ccccc12)NC(=O)[C@H](Cc1cnc[nH]1)NC(=O)[C@@H]1CCC(=O)N1)C(=O)N1CCC[C@H]1C(=O)NCC(N)=O	> 50	> 50	> 50																		Stability (Serum [1]): Stable; Drug metabolism [2]: Active
COc1cccc2c1C(=O)c1c(O)c3c(c(O)c1C2=O)C[C@@](O)(C(C)=O)C[C@@H]3O[C@H]1C[C@H](N)[C@H](O)[C@H](C)O1 [DAUNORUBICIN]	0.1	0.2	0.4		95		21	17			97	35	59	26	16	36	46	27	14		Activity (MONO-MAC-6 [22]): 121%; Ratio (MONO-MAC-6 [23]): 0.49; Activity (MONO-MAC-6 [24]): 142%; growth inhibition (GI) [25]: 24.4%; Ratio (MONO-MAC-6 [26]): 0.85; Ratio (MONO-MAC-6 [27]): 0.45
CN(Cc1cnc2nc(N)nc(N)c2n1)c1ccc(C(=O)N[C@@H](CCC(=O)O)C(=O)O)cc1 [METHOTREXATE]	0.3	1.4			102	0.77	96	60			101	94	89	52	29	97	80	52	27	0.95	Activity (MONO-MAC-6 [28]): 140%; Activity (MONO-MAC-6 [29]): Active; Ratio (MONO-MAC-6 [30]): 0.76; Ratio (MONO-MAC-6 [31]): 0.98
